Data reported in ChEMBL document CHEMBL1177789, “Inhibitors for expression of IgE receptor on human mast cell from Puerariae Flos” (Bioorg Med Chem Lett, 2010).
Calls of active or inactive are those of the source. The calls are words filed in the database; no cut-off is given here.

Experiments:
HMC1 [1] = test: Antiallergic activity in human HMC1 cells assessed as inhibition of IgE […] receptor expression after 72 hrs by flow cytometry; format: functional, cell-based
[2] = Cytotoxicity against human HMC1 cells at 50 uM after 72 hrs; format: cell-based; details: hmc1, 72 h
HMC1 [3] = test: Antiallergic activity in human HMC1 cells assessed as inhibition of IgE […] receptor mRNA expression after 72 hrs by RT-PCR; format: functional, cell-based

| Structure (SMILES) | inhibition (HMC1 [1]) | Activity [2] | inhibition (HMC1 [3]) |
| --- | --- | --- | --- |
| COc1cc2occ(-c3ccc(O)cc3)c(=O)c2cc1OC | Active | Non-toxic |  |
| COc1c(O)cc2occ(-c3ccc(O)cc3)c(=O)c2c1O |  |  | Active |
